{"source": "patent US12617779B2", "about": "“Self degradation-type CDK9 inhibitor prodrug and liposome encapsulating same” (Sumitomo Pharma Co., Ltd., priority 2021, dated 2026)", "key": {"[1]": {"test": "Evaluation of conversion rate to active form in human plasma (Experimental Example 3)", "format": "in vitro ADME", "details": "human, 0.2 μmol/L", "procedure": "(§1) For Example 1, Example 2, Example 3, Example 4, Example 5, Example 6, Comparative Example 3, Comparative Example 4, Comparative Example 6, Comparative Example 7, Comparative Example 8, Comparative Example 9, Comparative Example 10 and Comparative Example 12, the attrition rate of the test compound and the conversion rate of the test compound to Alvocidib in human plasma and BALB/c mouse plasma were calculated by the following method.\n(§2) The test compound was added to human plasma or BALB/c mouse plasma at a concentration of 0.2 μmol/L, and incubated at 37° C. The peak areas of the test compound and Alvocidib in the sample were determined by LC-MS/MS after 0, 30 and 60 minutes for Example 1, Example 2, Example 3, Example 4, Example 5 and Example 6, and after 0, 60 and 120 minutes for Comparative Example 3, Comparative Example 4, Comparative Example 6, Comparative Example 7, Comparative Example 8, Comparative Example 9, Comparative Example 10 and Comparative Example 12, and the attrition rate of the test compound and the conversion rate of the test compound to Alvocidib were calculated by the following formula. Attrition rate of test compound (%):(peak area of test compound in sample/peak area of test compound in sample after 0 minute)×100 Conversion rate to Alvocidib (%):(peak area of Alvocidib in sample/peak area of Alvocidib in reaction solution containing 0.2 μmol/L Alvocidib)×100\n(§3) The measurement conditions for LC-MS/MS are as follows. • HPLC: Prominence system (Shimadzu Corporation) • MS/MS: • Example 1, Example 2, Example 3, Example 4, Example 5, Example 6, Comparative Example 8 (mouse), Comparative Example 10 (mouse) and Comparative Example 12 (mouse) • QTRAP5500 (SCIEX) • Comparative Example 6, Comparative Example 7, Comparative Example 8 (human), Comparative Example 9, Comparative Example 10 (human) and Comparative Example 12 (human) • 4000 QTRAP (SCIEX) • column: • other than Example 3 and Example 4 • Cadenza CD-C18, 3 μm, 50×2 mm (Imtakt Corporation) • Example 3 and Example 4 • Kinetex C8, 2.6 μm, 50×2.1 mm (Phenomenex) • column temperature: 40° C. • mobile phase: • A: water containing 0.1% formic acid • B: acetonitrile containing 0.1% formic acid • A/B (min): • Example 1, Example 2, Example 5, Example 6, Comparative Example 8 (mouse), Comparative Example 10 (mouse) and Comparative Example 12 (mouse) • 90/10(0)→40/60(5.0)→10/90(5.1)→10/90(6.5)→90/10(6.6)→90/10(8.0) • Example 3 and Example 4 • 86/14(0)→86/14(3.5)→10/90(5.5)→10/90(6.5)→86/14(6.6)→86/14(9.5) • Comparative Example 6, Comparative Example 7, Comparative Example 8 (human), Comparative Example 9, Comparative Example 10 (human) and Comparative Example 12 (human) • 90/10(0)→10/90(2.5)→10/90(3.5)→90/10(3.6)→90/10(5.0) • flow rate: 0.4 mL/min • detection: ESI (positive mode) • injection: 1 to 5 μL"}, "[2]": {"test": "Evaluation of conversion rate to active form in buffer solution (Experimental Example 1)", "format": "physicochemical", "outline": "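Conversion to Alvocidib and loss of parent were followed by HPLC over 3 h (samples at 0, 0.5, 1, 2, 3 h). Incubations used 25 umol/L compound at 37 °C across pH 5.0–7.4, in 50 mM citrate below pH 6.0 and 50 mM phosphate from pH 6.0 upward.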"}, "[3]": {"test": "Evaluation of conversion rate to active form in BALB/c mouse plasma (Experimental Example 3)", "format": "in vitro ADME", "details": "BALB/c, mouse, 0.2 μmol/L", "procedure": "as §1, §2, §3"}}}
{"smiles": "CCNC(=O)O[C@@H]1CN(C)CC[C@@H]1c1c(O)cc(O)c2c(=O)cc(-c3ccccc3Cl)oc12", "note": "[Comparative Example 4, reference compound]", "values": [{"measurement": "Production rate (%) of Alvocidib", "setting": "[1]; 0 min", "value": 2, "unit": "%"}, {"measurement": "Residual rate (%) of test compound", "setting": "[1]; 0 min", "value": 100, "unit": "%"}, {"measurement": "Production rate (%) of Alvocidib", "setting": "[1]; 60 min", "value": 3, "unit": "%"}, {"measurement": "Residual rate (%) of test compound", "setting": "[1]; 60 min", "value": 101, "unit": "%"}, {"measurement": "Production rate (%) of Alvocidib", "setting": "[1]; 120 min", "value": 3, "unit": "%"}, {"measurement": "Residual rate (%) of test compound", "setting": "[1]; 120 min", "value": 134, "unit": "%"}, {"measurement": "Production rate of Alvocidib", "setting": "[2]; pH5.0, 0 hr", "value": 1.7, "unit": "%"}, {"measurement": "Residual rate", "setting": "[2]; pH5.0, 0 hr", "value": 97.7, "unit": "%"}, {"measurement": "Production rate of Alvocidib", "setting": "[2]; pH5.0, 0.5 hr", "value": 1.8, "unit": "%"}, {"measurement": "Residual rate", "setting": "[2]; pH5.0, 0.5 hr", "value": 97.8, "unit": "%"}, {"measurement": "Production rate of Alvocidib", "setting": "[2]; pH5.0, 1 hr", "value": 1.7, "unit": "%"}, {"measurement": "Residual rate", "setting": "[2]; pH5.0, 1 hr", "value": 97.8, "unit": "%"}, {"measurement": "Production rate of Alvocidib", "setting": "[2]; pH5.0, 2 hr", "value": 1.8, "unit": "%"}, {"measurement": "Residual rate", "setting": "[2]; pH5.0, 2 hr", "value": 97.7, "unit": "%"}, {"measurement": "Production rate of Alvocidib", "setting": "[2]; pH5.0, 3 hr", "value": 1.8, "unit": "%"}, {"measurement": "Residual rate", "setting": "[2]; pH5.0, 3 hr", "value": 97.7, "unit": "%"}, {"measurement": "Production rate of Alvocidib", "setting": "[2]; pH5.5, 0 hr", "value": 1.8, "unit": "%"}, {"measurement": "Residual rate", "setting": "[2]; pH5.5, 0 hr", "value": 97.8, "unit": "%"}, {"measurement": "Production rate of Alvocidib", "setting": "[2]; pH5.5, 0.5 hr", "value": 1.8, "unit": "%"}, {"measurement": "Residual rate", "setting": "[2]; pH5.5, 0.5 hr", "value": 97.6, "unit": "%"}, {"measurement": "Production rate of Alvocidib", "setting": "[2]; pH5.5, 1 hr", "value": 1.8, "unit": "%"}, {"measurement": "Residual rate", "setting": "[2]; pH5.5, 1 hr", "value": 97.7, "unit": "%"}, {"measurement": "Production rate of Alvocidib", "setting": "[2]; pH5.5, 2 hr", "value": 1.8, "unit": "%"}, {"measurement": "Residual rate", "setting": "[2]; pH5.5, 2 hr", "value": 97.8, "unit": "%"}, {"measurement": "Production rate of Alvocidib", "setting": "[2]; pH5.5, 3 hr", "value": 1.8, "unit": "%"}, {"measurement": "Residual rate", "setting": "[2]; pH5.5, 3 hr", "value": 97.6, "unit": "%"}, {"measurement": "Production rate of Alvocidib", "setting": "[2]; pH6.0, 0 hr", "value": 1.8, "unit": "%"}, {"measurement": "Residual rate", "setting": "[2]; pH6.0, 0 hr", "value": 97.8, "unit": "%"}, {"measurement": "Production rate of Alvocidib", "setting": "[2]; pH6.0, 0.5 hr", "value": 1.8, "unit": "%"}, {"measurement": "Residual rate", "setting": "[2]; pH6.0, 0.5 hr", "value": 97.7, "unit": "%"}, {"measurement": "Production rate of Alvocidib", "setting": "[2]; pH6.0, 1 hr", "value": 1.7, "unit": "%"}, {"measurement": "Residual rate", "setting": "[2]; pH6.0, 1 hr", "value": 97.7, "unit": "%"}, {"measurement": "Production rate of Alvocidib", "setting": "[2]; pH6.0, 2 hr", "value": 1.8, "unit": "%"}, {"measurement": "Residual rate", "setting": "[2]; pH6.0, 2 hr", "value": 97.7, "unit": "%"}, {"measurement": "Production rate of Alvocidib", "setting": "[2]; pH6.0, 3 hr", "value": 1.8, "unit": "%"}, {"measurement": "Residual rate", "setting": "[2]; pH6.0, 3 hr", "value": 97.7, "unit": "%"}, {"measurement": "Production rate of Alvocidib", "setting": "[2]; pH6.5, 0 hr", "value": 1.8, "unit": "%"}, {"measurement": "Residual rate", "setting": "[2]; pH6.5, 0 hr", "value": 97.7, "unit": "%"}, {"measurement": "Production rate of Alvocidib", "setting": "[2]; pH6.5, 0.5 hr", "value": 1.8, "unit": "%"}, {"measurement": "Residual rate", "setting": "[2]; pH6.5, 0.5 hr", "value": 97.6, "unit": "%"}, {"measurement": "Production rate of Alvocidib", "setting": "[2]; pH6.5, 1 hr", "value": 1.8, "unit": "%"}, {"measurement": "Residual rate", "setting": "[2]; pH6.5, 1 hr", "value": 97.7, "unit": "%"}, {"measurement": "Production rate of Alvocidib", "setting": "[2]; pH6.5, 2 hr", "value": 1.8, "unit": "%"}, {"measurement": "Residual rate", "setting": "[2]; pH6.5, 2 hr", "value": 97.8, "unit": "%"}, {"measurement": "Production rate of Alvocidib", "setting": "[2]; pH6.5, 3 hr", "value": 1.8, "unit": "%"}, {"measurement": "Residual rate", "setting": "[2]; pH6.5, 3 hr", "value": 97.7, "unit": "%"}, {"measurement": "Production rate of Alvocidib", "setting": "[2]; pH7.0, 0 hr", "value": 1.8, "unit": "%"}, {"measurement": "Residual rate", "setting": "[2]; pH7.0, 0 hr", "value": 97.7, "unit": "%"}, {"measurement": "Production rate of Alvocidib", "setting": "[2]; pH7.0, 0.5 hr", "value": 1.8, "unit": "%"}, {"measurement": "Residual rate", "setting": "[2]; pH7.0, 0.5 hr", "value": 97.7, "unit": "%"}, {"measurement": "Production rate of Alvocidib", "setting": "[2]; pH7.0, 1 hr", "value": 1.8, "unit": "%"}, {"measurement": "Residual rate", "setting": "[2]; pH7.0, 1 hr", "value": 97.6, "unit": "%"}, {"measurement": "Production rate of Alvocidib", "setting": "[2]; pH7.0, 2 hr", "value": 1.8, "unit": "%"}, {"measurement": "Residual rate", "setting": "[2]; pH7.0, 2 hr", "value": 97.6, "unit": "%"}, {"measurement": "Production rate of Alvocidib", "setting": "[2]; pH7.0, 3 hr", "value": 1.8, "unit": "%"}, {"measurement": "Residual rate", "setting": "[2]; pH7.0, 3 hr", "value": 97.7, "unit": "%"}, {"measurement": "Production rate of Alvocidib", "setting": "[2]; pH7.4, 0 hr", "value": 1.8, "unit": "%"}, {"measurement": "Residual rate", "setting": "[2]; pH7.4, 0 hr", "value": 97.7, "unit": "%"}, {"measurement": "Conversion to Alvocidib at pH 7.4", "setting": "[2]; pH 7.4, 37° C., up to 3 hours", "value": "slowly converted to Alvocidib"}, {"measurement": "Production rate of Alvocidib", "setting": "[2]; pH7.4, 0.5 hr", "value": 1.8, "unit": "%"}, {"measurement": "Residual rate", "setting": "[2]; pH7.4, 0.5 hr", "value": 97.6, "unit": "%"}, {"measurement": "Production rate of Alvocidib", "setting": "[2]; pH7.4, 1 hr", "value": 1.7, "unit": "%"}, {"measurement": "Residual rate", "setting": "[2]; pH7.4, 1 hr", "value": 97.7, "unit": "%"}, {"measurement": "Production rate of Alvocidib", "setting": "[2]; pH7.4, 2 hr", "value": 1.8, "unit": "%"}, {"measurement": "Residual rate", "setting": "[2]; pH7.4, 2 hr", "value": 97.7, "unit": "%"}, {"measurement": "Production rate of Alvocidib", "setting": "[2]; pH7.4, 3 hr", "value": 1.8, "unit": "%"}, {"measurement": "Residual rate", "setting": "[2]; pH7.4, 3 hr", "value": 97.8, "unit": "%"}, {"measurement": "Production rate (%) of Alvocidib", "setting": "[3]; 0 min", "value": 2, "unit": "%"}, {"measurement": "Residual rate (%) of test compound", "setting": "[3]; 0 min", "value": 100, "unit": "%"}, {"measurement": "Production rate (%) of Alvocidib", "setting": "[3]; 60 min", "value": 3, "unit": "%"}, {"measurement": "Residual rate (%) of test compound", "setting": "[3]; 60 min", "value": 94, "unit": "%"}, {"measurement": "Production rate (%) of Alvocidib", "setting": "[3]; 120 min", "value": 3, "unit": "%"}, {"measurement": "Residual rate (%) of test compound", "setting": "[3]; 120 min", "value": 92, "unit": "%"}]}
